Source: EP4603105A1, “PHARMACEUTICAL COMPOSITION CONTAINING CYCLIC COMPOUND HAVING SELECTIVE KRAS INHIBITORY EFFECT AGAINST HRAS AND NRAS” (CHUGAI SEIYAKU KABUSHIKI KAISHA, priority 2022, dated 2024)
Where a SMILES comes first, the peptide text is derived from it. Bridges are numbered along the chain shown (N, C = ends). [ ]: non-standard residue; d: D form. The star is where a group is joined. hPhe(3-Cl-4-CF3) = N[C@@H](CCc1ccc(C(F)(F)F)c(Cl)c1)C(=O)O; NPrPhe(4-CF3) = CCCN[C@@H](Cc1ccc(C(F)(F)F)cc1)C(=O)O; NMeGly(cPent) = CN[C@H](C(=O)O)C1CCCC1; NMeD = CN[C@@H](CC(=O)O)C(=O)O; NMeL = CN[C@@H](CC(C)C)C(=O)O; Morpholide = C1CN(*)CCO1; Ac5c = NC1(C(=O)O)CCCC1; Aze = O=C(O)[C@@H]1CCN1; Ac4c = NC1(C(=O)O)CCC1; Sar = CNCC(=O)O

Legend:
[1] = target: GDP-bound KRAS wild-type protein (Homo sapiens, UniProt P01116); assay: Binding to KRAS by surface plasmon resonance (SPR), dissociation constant KD; conditions: 1:1 binding model
In short: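 Single-cycle kinetics on GDP-loaded biotin-Avi RAS captured to ~100–300 RU; 75 s ascending injections, 100 µL/min, 30°C. HBS pH 7.4 + 10 mM MgCl2/10 µM GDP/4% DMSO. 1:1 fit, KD.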

HRAS wild-type protein = HRAS wild-type protein (Homo sapiens, UniProt P01112); assay: Binding to HRAS by surface plasmon resonance (SPR), KD and KD ratio to KRAS
In short: (§1)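 GDP-loaded biotinylated Avi-tag RAS proteins (E. coli-expressed) captured on a Biotin CAPture chip at ~100–300 RU; single-cycle kinetics at 30°C, 100 µL/min, 75 s injections of rising compound concentrations. HBS pH 7.4 running buffer with 1 mM DTT, 10 mM MgCl2, 10 µM GDP, 4% DMSO. KD from 1:1 binding fit.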

[2] = target: GDP-bound NRAS wild-type protein (Homo sapiens, UniProt P01111); assay: Binding to NRAS by surface plasmon resonance (SPR), KD and KD ratio to KRAS
In short: as §1

[3] = tested on: human lung cancer strain NCI-H441; format: cell-based
In short: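 Readout: […] after the ATP-based reagent. Compound: serial dilutions in dimethyl sulfoxide.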

[4] = ratio of KD for HRAS wild-type protein to KD for KRAS
[5] = ratio of KD for GDP-bound NRAS wild-type protein to KD for KRAS
[6] = ratio of the KD value with respect to HRAS wild-type protein to the KD value with respect to KRAS
[7] = ratio of the KD value with respect to GDP-bound NRAS wild-type protein to the KD value with respect to KRAS
[8] = ratio of KD value for HRAS wild-type protein to KD value for KRAS (SPR)
[9] = ratio of KD value for GDP-bound NRAS wild-type protein to KD value for KRAS (SPR)

GDP-bound KRAS wild-type protein, sequence (P01116 1-188 isoform P01116-2): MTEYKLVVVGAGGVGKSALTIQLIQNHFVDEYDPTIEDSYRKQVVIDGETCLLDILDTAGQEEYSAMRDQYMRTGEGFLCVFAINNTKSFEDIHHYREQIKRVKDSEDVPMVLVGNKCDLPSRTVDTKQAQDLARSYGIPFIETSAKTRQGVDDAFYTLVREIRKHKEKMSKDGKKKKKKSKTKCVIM
HRAS wild-type protein, sequence (P01112 whole entry): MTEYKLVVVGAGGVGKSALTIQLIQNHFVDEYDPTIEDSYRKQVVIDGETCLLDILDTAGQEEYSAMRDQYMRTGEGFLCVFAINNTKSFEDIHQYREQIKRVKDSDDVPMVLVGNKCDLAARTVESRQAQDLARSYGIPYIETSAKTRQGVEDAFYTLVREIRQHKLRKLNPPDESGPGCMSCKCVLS
GDP-bound NRAS wild-type protein, sequence (P01111 whole entry): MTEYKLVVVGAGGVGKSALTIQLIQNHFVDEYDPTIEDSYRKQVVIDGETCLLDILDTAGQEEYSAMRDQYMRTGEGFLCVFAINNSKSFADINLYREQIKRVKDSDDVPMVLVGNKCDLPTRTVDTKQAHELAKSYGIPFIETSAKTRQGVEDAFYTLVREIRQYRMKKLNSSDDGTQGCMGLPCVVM

Kd [1] [nM]	IC50 [3] [nM]	Kd ([1]; Single Cycle Kinetics) [nM]	SMILES	HRAS /KRAS (HRAS wild-type protein; [4])	NRAS /KRAS [2, 5]	HRAS /KRAS (HRAS wild-type protein; [6])	NRAS /KRAS [2, 7]	HRAS /KRAS (HRAS wild-type protein; [8])	NRAS /KRAS [2, 9]
2.1	205	–	CCCN1C(=O)CN(C)C(=O)[C@@H]2CCN2C(=O)[C@H]([C@@H](C)CC)NC(=O)[C@H](CC(C)C)N(C)C(=O)C[C@@H](C(=O)N2CCOCC2)N(C)C(=O)[C@H](C2CCCC2)N(C)C(=O)C2(CCCC2)NC(=O)[C@@H]2CCN2C(=O)[C@H](CCc2ccc(C(F)(F)F)c(Cl)c2)NC(=O)CN(C)C(=O)[C@@H]1Cc1ccc(C(F)(F)F)cc1 [PP0307] ([NMeL]I[Aze][Sar][NPrPhe(4-CF3)][Sar][hPhe(3-Cl-4-CF3)][Aze][Ac5c][NMeGly(cPent)][NMeD]-Morpholide; lactam N-11)	B (a compound having 3 or more and less than 10 is denoted as B)	B (a compound having 3 or more and less than 10 is denoted as B)	–	–	–	–
2.1	128	–	CCC[C@H]1C(=O)N[C@@H](C2CCOCC2)C(=O)N(C)CC(=O)N(C)[C@H]2C/C=C\CCN(C2=O)[C@@H](Cc2ccc(C)cc2)C(=O)N(C)CC(=O)N[C@@H](CCc2ccc(C(F)(F)F)c(Cl)c2)C(=O)N2C[C@H](OCC)C[C@H]2C(=O)NC2(CC(C)(C)C2)C(=O)N(C)[C@@H](C2CCCC2)C(=O)N(C)[C@H](C(=O)N(C)C)CC(=O)N1C [PP3002]	A (a compound having 10 or more and less than 20 is denoted as A)	A (a compound having 10 or more and less than 20 is denoted as A)	–	–	–	–
–	12.4	0.39	CCCN1C(=O)CN(C)C(=O)[C@@H]2CCN2C(=O)[C@H]([C@@H](C)CC)NC(=O)[C@H](CC(C)C)N(C)C(=O)C[C@@H](C(=O)N(C)C)N(C)C(=O)[C@H](C2CCCC2)N(C)C(=O)C2(CCCC2)NC(=O)[C@@H]2CCCN2C(=O)[C@H](CCc2ccc(C(F)(F)F)c(Cl)c2)NC(=O)CN(C)C(=O)[C@@H]1Cc1ccc(C(F)(F)F)cc1 [PP0429] ([NMeL]I[Aze][Sar][NPrPhe(4-CF3)][Sar][hPhe(3-Cl-4-CF3)]P[Ac5c][NMeGly(cPent)][NMeD]-NMe2; lactam N-11)	–	–	C (A compound having a KD ratio of 0.1 or more and less than 3 is denoted as C)	B (a compound having 3 or more and less than 10 is denoted as B)	–	–
–	58.1	1.2	CCCN1C(=O)CN(C)C(=O)[C@@H]2CCN2C(=O)[C@H]([C@@H](C)CC)NC(=O)[C@H](CC(C)C)N(C)C(=O)C[C@@H](C(=O)N2CCOCC2)N(C)C(=O)[C@H](C2CCCC2)N(C)C(=O)C2(CCC2)NC(=O)[C@@H]2CCCN2C(=O)[C@H](CCc2ccc(C(F)(F)F)c(Cl)c2)NC(=O)CN(C)C(=O)[C@@H]1Cc1ccc(C(F)(F)F)cc1 [PP0402] ([NMeL]I[Aze][Sar][NPrPhe(4-CF3)][Sar][hPhe(3-Cl-4-CF3)]P[Ac4c][NMeGly(cPent)][NMeD]-Morpholide; lactam N-11)	–	–	C (A compound having a KD ratio of 0.1 or more and less than 3 is denoted as C)	B (a compound having 3 or more and less than 10 is denoted as B)	–	–
–	6	0.071	CC[C@H](C)[C@@H]1NC(=O)[C@H](CC(C)C)N(C)C(=O)C[C@@H](C(=O)N(C)C)N(C)C(=O)[C@H](C2CCCC2)N(C)C(=O)C2(CCC2)NC(=O)[C@@H]2C[C@H](C)CN2C(=O)[C@H](CCc2ccc(C(F)(F)F)c(Cl)c2)NC(=O)CN(C)C(=O)[C@H](Cc2ccc(C)cc2)N2CC/C=C\C[C@@H](C2=O)N(C)C(=O)CN(C)C1=O [PP1852]	–	–	–	–	B (a compound having 3 or more and less than 10 is denoted as B)	A (a compound having 10 or more and less than 20 is denoted as A)
0.076	9.7	–	CCO[C@@H]1C[C@H]2C(=O)NC3(CC(C)(C)C3)C(=O)N(C)[C@@H](C3CCCC3)C(=O)N(C)[C@H](C(=O)N(C)CC)CC(=O)N(C)[C@@H]([C@@H](C)OC)C(=O)N[C@@H]([C@@H](C)CC)C(=O)N(C)CC(=O)N(C)[C@H]3C/C=C\CCN(C3=O)[C@@H](Cc3ccc(C(F)(F)F)cc3)C(=O)N(C)CC(=O)N[C@@H](CCc3ccc(C(F)(F)F)c(OC)c3)C(=O)N2C1 [PP3158]	A (a compound having 10 or more and less than 20 is denoted as A)	A (a compound having 10 or more and less than 20 is denoted as A)	–	–	–	–
–	28.8	0.14	CCC[C@H]1C(=O)N[C@@H]([C@@H](C)CC)C(=O)N(C)CC(=O)N(C)[C@H]2C/C=C\CCN(C2=O)[C@@H](Cc2ccc(C)cc2)C(=O)N(C)CC(=O)N[C@@H](CCc2ccc(C(F)(F)F)c(OC)c2)C(=O)N2C[C@H](C)C[C@H]2C(=O)NC2(CCC2)C(=O)N(C)[C@@H](C2CCCC2)C(=O)N(C)[C@H](C(=O)N(C)C)CC(=O)N1C [PP1859]	–	–	–	–	A (a compound having 10 or more and less than 20 is denoted as A)	A (a compound having 10 or more and less than 20 is denoted as A)
–	9.8	0.1	CC[C@H](C)[C@@H]1NC(=O)[C@H](CC)N(C)C(=O)C[C@@H](C(=O)N(C)C)N(C)C(=O)[C@H](C2CCCC2)N(C)C(=O)C2(CC(C)(C)C2)NC(=O)[C@@H]2C[C@@H](C)CN2C(=O)[C@H](CCc2ccc(C(F)(F)F)c(Cl)c2)NC(=O)CN(C)C(=O)[C@H](Cc2ccc(C)cc2)N2CC/C=C\C[C@@H](C2=O)N(C)C(=O)CN(C)C1=O [PP1846]	–	–	–	–	B (a compound having 3 or more and less than 10 is denoted as B)	A (a compound having 10 or more and less than 20 is denoted as A)

More lines, now with the values behind:

SMILES	Kd [1] [nM]	IC50 [3] [nM]	Kd ([1]; Single Cycle Kinetics) [nM]	HRAS /KRAS (HRAS wild-type protein; [4])	NRAS /KRAS [2, 5]	HRAS /KRAS (HRAS wild-type protein; [6])	NRAS /KRAS [2, 7]	HRAS /KRAS (HRAS wild-type protein; [8])	NRAS /KRAS [2, 9]
CCC(CC)[C@H]1C(=O)N(C)[C@H](C(=O)N(C)C)CC(=O)N(C)[C@@H](COC)C(=O)N[C@@H]([C@@H](C)CC)C(=O)N(C)CC(=O)N(C)[C@H]2C/C=C\CCN(C2=O)[C@@H](Cc2ccc(C)cc2)C(=O)N(C)CC(=O)N[C@@H](CCc2ccc(Cl)c(Cl)c2)C(=O)N2CC3(CC3)C[C@H]2C(=O)N(C)C2(CC(C)(C)C2)C(=O)N1C [PP2820]	0.94	62.4	–	A (a compound having 10 or more and less than 20 is denoted as A)	AA (a compound having 20 or more is denoted as AA)	–	–	–	–
CCC[C@H]1C(=O)N[C@@H]([C@@H](C)CC)C(=O)N(C2CC2)CC(=O)N(C)[C@H]2C/C=C\CCN(C2=O)[C@@H](Cc2ccc(C)cc2)C(=O)N(C)CC(=O)N[C@@H](CCc2ccc(Cl)c(Cl)c2)C(=O)N2C[C@H](OCC)C[C@H]2C(=O)NC2(CC(C)(C)C2)C(=O)N(C)[C@@H](CC2CC2)C(=O)N(C)[C@H](C(=O)N(C)C)CC(=O)N1C [PP2805]	3.7	83	–	A (a compound having 10 or more and less than 20 is denoted as A)	A (a compound having 10 or more and less than 20 is denoted as A)	–	–	–	–
CCC(CC)[C@H]1C(=O)N(C)[C@H](C(=O)N(C)C)CC(=O)N(C)[C@@H](COC)C(=O)N[C@@H]([C@@H](C)CC)C(=O)N(C)CC(=O)N(C)[C@H]2C/C=C\CCN(C2=O)[C@@H](Cc2ccc(C)cc2)C(=O)N(C)CC(=O)N[C@@H](CCc2ccc(C(F)(F)F)c(OC)c2)C(=O)N2CCCC[C@H]2C(=O)NC2(CC(C)(C)C2)C(=O)N1C [PP2937]	1.1	137	–	A (a compound having 10 or more and less than 20 is denoted as A)	A (a compound having 10 or more and less than 20 is denoted as A)	–	–	–	–
CCC[C@H]1C(=O)N[C@@H]([C@@H](C)CC)C(=O)N(C)CC(=O)N(C)[C@H]2C/C=C\CCN(C2=O)[C@@H](Cc2ccc(C)cc2)C(=O)N(C)CC(=O)N[C@@H](CCc2ccc(C(F)(F)F)c(OC)c2)C(=O)N2C[C@H](OCC)C[C@H]2C(=O)NC2(CC(C)(C)C2)C(=O)N(C)[C@@H](CC(F)(F)F)C(=O)N(C)[C@H](C(=O)N(C)C)CC(=O)N1C [PP3007]	1.3	63.4	–	A (a compound having 10 or more and less than 20 is denoted as A)	A (a compound having 10 or more and less than 20 is denoted as A)	–	–	–	–
CCCO[C@@H]1C[C@H]2C(=O)NC3(CC(C)(C)C3)C(=O)N(C)[C@@H](C3CCCC3)C(=O)N(C)[C@H](C(=O)N(C)CC)CC(=O)N(C)[C@H]3CCCc4ccc(cc4)C[C@@H](C(=O)N(C)CC(=O)N[C@@H](CCc4ccc(C(F)(F)F)c(OC)c4)C(=O)N2C1)N1CC/C=C\C[C@@H](C1=O)N(C)C(=O)CN(C)C(=O)[C@H]([C@@H](C)CC)NC3=O [PP3083]	0.077	2.5	–	A (a compound having 10 or more and less than 20 is denoted as A)	A (a compound having 10 or more and less than 20 is denoted as A)	–	–	–	–
C=CC[C@@H]1NC(=O)[C@H](CC2CC2)N(C)C(=O)C[C@@H](C(=O)N(C)CC=C)N(C)C(=O)[C@H](C2CCCC2)N(C)C(=O)C2(CCC2)NC(=O)[C@@H]2C[C@@H](OCC)CN2C(=O)[C@H](CCc2cc(F)c(C(F)(F)F)c(F)c2)NC(=O)CN(C)C(=O)[C@H](Cc2ccc(C(F)(F)F)cc2)N2CC/C=C\C[C@@H](C2=O)N(C)C(=O)CN(C)C1=O [PP1557]	–	86.3	1.2	–	–	–	–	A (a compound having 10 or more and less than 20 is denoted as A)	A (a compound having 10 or more and less than 20 is denoted as A)
